Source: US20140309296A1, “BUDIODARONE FORMULATIONS” (Armetheon, Inc., priority 2013, published 2014)
Counter-ions that a name gives are not always drawn. Each block holds one compound with its values, some of them ahead of it.

Columns and labels:
[1] = test system: sodium, potassium, and calcium ion channels; conditions: in vivo; cited from earlier work
[2] = Solubility of budiodarone tartrate in water (Example 2); type: physicochemical
Experimental: The aqueous solubility of budiodarone tartrate was measured in pure distilled water. Budiodarone tartrate (250 mg) was suspended in distilled water (10 ml) and the suspension was vortexed on a VWR Genie 2 vortexer at maximum speed for 3×10 sec duration. The suspension was then stirred for 96 hours at room temperature, protected from light. After 96 hours, the suspension was vortexed again and a 1 ml aliquot was centrifuged at 13,000 rpm for 10 minutes to precipitate all insoluble material. A 40 μl aliquot of the clear supernatant was diluted with 960 μl of methanol (25-fold dilution) and was analyzed by HPLC using Conditions 3.
The amount of budiodarone in solution is found to be 7.04 mg/ml. This figure is the solubility of budiodarone tartrate in water.

[3] = 30 ml of 0.9% benzyl alcohol in saline, estimated from animal studies; cited from earlier work
[4] = Budiodarone concentration attainable in hyperconcentrated solutions (Examples 16-18); type: physicochemical
Experimental: The benzyl alcohol/budiodarone tartrate solution is viscous and therefore direct measurement of the budiodarone concentration is difficult. A better way to measure budiodarone concentration in the solution of benzyl alcohol and budiodarone oil or in a hyperconcentrated solution is by using an indirect method. In this example, the volume of the benzyl alcohol/budiodarone mixture was measured, which in turn allowed for the calculation of an accurate budiodarone concentration.
In each of five vials of accurately known volume, budiodarone tartrate (250 mg) and benzyl alcohol (91 μl) were mixed in order to make a 3/1 mixture (mol/mol). Then the solution was mixed thoroughly in order to make a clear solution. This was aided with the help of warming to 50° C. for 3 minutes in order to reduce the viscosity of the mixture. The weight of the vial containing the 3:1 mixture of benzyl alcohol/budiodarone was then recorded. Vial number 1 was filled with silicon oil of density d=0.964 and weighed again. The difference in weight provided the weight of the silicon oil added. This, divided by the density of the silicon oil provided the volume of silicon oil necessary to fill the vial. The difference with the known volume of the vial represents the volume of the benzyl alcohol/budiodarone mixture. To Vial numbers 2, 3, 4, and 5 was added 50, 100, 200, and 400 μl of water, respectively. The contents of the vials were then thoroughly mixed in order to get hyperconcentrated solutions of different volumes and different budiodarone concentrations. The volumes of these hyperconcentrations using silicon oil were measured as described above.
The same experiment as Example 16 was replicated, using mixtures of 5/1 ratio (250 mg of budiodarone tartrate and 152 μl of benzyl alcohol) and various volumes of water added. Using the same procedure as Example 16, a maximum calculated budiodarone concentration of 737 mg/ml and a maximum benzyl alcohol concentration of 45% (v/v) were found.
Similarly, the experiment in Example 16 was replicated, using a 1/1 mixture (250 mg of budiodarone tartrate and 30 μl of benzyl alcohol). A maximum calculated budiodarone concentration of 1,136 mg/ml and a maximum benzyl alcohol concentration of 13.6% (v/v) were found.

SMILES: CCN(CC)CCOc1c(I)cc(C(=O)c2c(CC(=O)O)oc3ccccc23)cc1I [ATI-2000]
electrophysiological activity of the major metabolite [1]: electrophysiologically inactive

SMILES: CC[C@H](C)OC(=O)Cc1oc2ccccc2c1C(=O)c1cc(I)c(OCCN(CC)CC)c(I)c1 [budiodarone tartrate, (1S)-1-methylpropyl 2-(3-{4-[2-(diethylamino)ethoxy]-3,5-diiodobenzoyl}benzofuran-2-yl)acetate, hydrogen (2R,3R)-2,3-dihydroxybutanedioate]
degradation products in the clear supernatant ([2]; after 96 hours stirring in distilled water at room temperature, HPLC): No significant amount of degradation products were detected
solubility at 96 h ([2]; distilled water, water, thermodynamic from solid, water, room temperature, read-out: aqueous solubility of budiodarone tartrate): 7040 µg/mL
aqueous solubility of budiodarone tartrate ([2]; water, room temperature): about 7 mg/ml

maximum benzyl alcohol concentration ([4]; 1/1 mixture): 13.6 % (v/v)
maximum benzyl alcohol concentration ([4]; 3:1 molar ratio of benzyl alcohol/budiodarone): 32.4 % (v/v)
maximum benzyl alcohol concentration ([4]; 5/1 ratio): 45 % (v/v)
SMILES: OCc1ccccc1 [benzyl alcohol]
amount estimated to be safe by rapid intravenous infusion [3]: approximately 4.5 mg/kg
